From PMC12473159, “A Comprehensive Functional Analysis of OsPEAMT1 and OsPEAMT2 Genes in Rice (Oryza sativa L. ssp. japonica)” (Plants, 2025)

Tests used:
OsPEAMT2 = target: T1, OsPEAMT2 (Oryza sativa, UniProt A0A0P0WPX7); experiment: LC-MS/MS of phosphocholine formed; format: biochemical; conditions: 200 uM P-EA, 200 uM S-adenosyl-L-methionine, HEPES-KOH pH 9.9, 2 mM EDTA, 30 C, 30 min
T1 construct: gene Os05g0548900; forward primer encodes MDAVAAN
T1 sequence (A0A0P0WPX7 1-495): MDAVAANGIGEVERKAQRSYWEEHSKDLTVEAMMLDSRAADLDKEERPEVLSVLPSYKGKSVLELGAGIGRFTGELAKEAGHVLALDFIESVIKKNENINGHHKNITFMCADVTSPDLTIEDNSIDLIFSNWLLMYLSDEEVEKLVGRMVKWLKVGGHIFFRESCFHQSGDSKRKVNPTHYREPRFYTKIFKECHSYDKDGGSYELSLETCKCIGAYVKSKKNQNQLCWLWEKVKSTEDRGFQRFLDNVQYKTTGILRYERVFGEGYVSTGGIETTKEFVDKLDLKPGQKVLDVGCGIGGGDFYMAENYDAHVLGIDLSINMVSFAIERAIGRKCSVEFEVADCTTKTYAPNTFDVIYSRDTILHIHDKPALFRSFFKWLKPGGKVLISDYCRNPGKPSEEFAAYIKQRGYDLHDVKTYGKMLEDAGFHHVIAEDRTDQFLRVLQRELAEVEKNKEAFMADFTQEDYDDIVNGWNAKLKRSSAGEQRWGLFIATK

OsPEAMT1 = target: T2, OsPEAMT1 (Oryza sativa, UniProt Q6QA26); experiment: LC-MS/MS of phosphocholine formed; format: biochemical; conditions: 200 uM P-EA, 200 uM S-adenosyl-L-methionine, HEPES-KOH pH 9.9, 2 mM EDTA, 30 C, 30 min
T2 construct: gene PEAMT
T2 sequence (Q6QA26 20-499): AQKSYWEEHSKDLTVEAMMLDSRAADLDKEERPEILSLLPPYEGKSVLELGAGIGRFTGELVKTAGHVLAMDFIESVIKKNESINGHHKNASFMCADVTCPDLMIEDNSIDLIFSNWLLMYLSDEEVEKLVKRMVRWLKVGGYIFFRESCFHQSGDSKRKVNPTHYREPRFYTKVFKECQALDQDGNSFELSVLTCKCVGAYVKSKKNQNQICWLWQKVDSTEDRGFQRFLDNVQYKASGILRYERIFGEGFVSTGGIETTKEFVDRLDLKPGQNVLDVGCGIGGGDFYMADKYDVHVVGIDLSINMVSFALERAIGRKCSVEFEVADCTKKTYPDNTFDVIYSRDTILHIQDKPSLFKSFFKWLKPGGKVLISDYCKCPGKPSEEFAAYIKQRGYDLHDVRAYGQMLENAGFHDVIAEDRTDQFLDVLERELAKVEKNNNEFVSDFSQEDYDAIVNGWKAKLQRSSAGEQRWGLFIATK

NCCOP(=O)(O)O [P-EA]
LC-MS/MS of phosphocholine formed (OsPEAMT2): both recombinant OsPEAMT1 and OsPEAMT2 have the activity to catalyze substrate P-EA producing P-Cho | LC-MS/MS of phosphocholine formed (OsPEAMT1): both recombinant OsPEAMT1 and OsPEAMT2 have the activity to catalyze substrate P-EA producing P-Cho
